Consider 10 compounds from paper PMC12392461, “Beyond Estrogenicity: A Comparative Assessment of Bisphenol A and Its Alternatives in In Vitro Assays Questions Safety of Replacements” (Environmental Science & Technology, 2025).

The test system of data set [1] is ERα-UAS-bla GripTite cells. Conditions: TKcytotoxicity-Ratio. The procedure:
Cell culture conditions and bioassay protocols including response detection are provided in Text S2.1–2.4 and Table S3. − Cell viability was determined from cell confluency using an IncuCyte S3 Live-Cell Analysis System (Sartorius AG, Essen, Germany) before and after exposure, except for SH-SY5Y cells (live–dead staining with Nuclear Green LcS1 and propidium iodide, Abcam, UK). For metabolic activation experiments, cell viability was assessed using the ToxBLAzer DualScreen Kit (Thermo Fisher Scientific) to capture the remaining toxicity in ERα-UAS-bla GripTite after treatment with the aCYP catalyst (details in Text S2.4). […]
The TK-Ratio method was used to evaluate the impact of abiotic CYP oxidation on the potency of tested compounds. […]
For experiments with the preceding aCYP activation, ERα cell viability was additionally calculated from the readout of the ToxBLAzer reagent. The ToxBLAzer assay was conducted following the manufacturer's instructions (Thermo Fisher, Waltham, MA, U.S.).13 Fluorescence intensity was recorded at the start of the assay ( Fwavelength(0h)) and after a 2-hour incubation at […]
eq. S11 for normalization.
Cell viability = F665nm(2h, sample)-F665nm(0h, average cell-free) (S11) F665nm(2h, average unexposed)-F665nm(0h, average cell-free) […]
the specific endpoint to avoid artifacts from cytotoxicity burst. 15
S2.5: Concentration-response curves (CRCs)
To avoid bias from cytotoxicity burst at higher concentrations, all concentrations exceeding the IC10 for cytotoxicity were excluded in the CRC modeling of effects but otherwise cytotoxicity and effects were fitted with the same model equations (response stands for cytotoxicity or effect). For ERα, AhR, ARE and PPARγ preferably a linear model was fitted to the linear portion of CRC up to maximum 30% effect (eq. S12),16 but in some cases it was necessary to choose a sigmoidal log-concentration-response model, specifically a log-logistic model (eq. S13), to derive effect concentrations and cytotoxicity. […]
This was done using the
AutomatedBioassayScreening19 published by Braun et al.,20 which also included an algorithm to choose the best model between eq. S12 and eq. S13.
Response (%) = slope × C (S12) […]
logEC =logEC − 1 ∙log (max−min − 100%) (S14)

Data set [2] relates to Antioxidant response element. The data set is described as follows: MitoOxTox: oxidative stress response in AREc32. Conditions: for EC10, linear / logEC10: Bioassay ARE, dosing range all; for EC10, linear: linear model fit; for logEC10: log-logistic model fit. The text has this: (§1) All bioassay media components and the ERα-UAS-bla GripTite and PPARγ-UAS-bla cells were obtained from Thermo Fisher Scientific (Waltham, MA, USA). AREc32 reporter gene cells based on MCF7 were provided by C. Roland Wolf (Cancer Research UK); AhR CALUX cells (H4L7.5c2 derived from H4IIe) were provided by Michael Denison (UC Davis, USA); and SH-SY5Y cells were purchased from Sigma-Aldrich.
(§2) Cell culture conditions and bioassay protocols including response detection are provided in Text S2.1–2.4 and Table S3. − Cell viability was determined from cell confluency using an IncuCyte S3 Live-Cell Analysis System (Sartorius AG, Essen, Germany) before and after exposure, except for SH-SY5Y cells (live–dead staining with Nuclear Green LcS1 and propidium iodide, Abcam, UK). For metabolic activation experiments, cell viability was assessed using the ToxBLAzer DualScreen Kit (Thermo Fisher Scientific) to capture the remaining toxicity in ERα-UAS-bla GripTite after treatment with the aCYP catalyst (details in Text S2.4).
(§3) For ARE, the concentration that triggered an induction ratio of 1.5 (ECIR1.5) was used as the benchmark value, as detailed in Text S2.5. IC10 values also served as a threshold for data analysis in all assays; only concentrations below IC10 were considered when deriving EC10 or ECIR1.5. […]
(§4) S2: Cell culture and bioassays
(§5) S2.1: Cell Culturing Conditions
(§6) All suppliers and sources are given in detail in SI-Excel S3. The bioassay media for the different assays were prepared as follows: Assay medium for ER alpha-UAS-bla GripTite (ERα) and PPAR gamma-UAS-bla 293H (PPARγ) was prepared with 98% Opti-MEM, supplemented with 2% charcoal-stripped FBS, and 100 U/mL penicillin-streptomycin. MitoOxTox and AhR assay medium was comprised of 90% DMEM with GlutaMAX, supplemented with 10% FBS, and 100 U/mL penicillin-streptomycin. Neurotoxicity assay medium consisted of the neurobasal […]
(§7) (1 picture or pasted object on this page, not shown here) […]
(§8) medium, supplemented with 2% B-27 Supplement and 2 mM GlutaMAX Supplement. SH - SY5Y cells were differentiated with 10 µM all-trans retinoic acid prior to the assay.
(§9) S2.2: Cell Seeding and Incubation. For all bioassays, cell suspensions in the respective assay medium were dispensed into each well of 384-well plates using a MultiFlo Dispenser (Biotek, (now Agilent), Winooski, VT, U.S.). After seeding, the plates were incubated at 37° C and 5% CO₂ for […]. The final cell densities and plate types were as follows: Black poly-D-lysine coated 384-well plates (Product No. 354663, Corning Inc., NYC, U.S.) were used for PPARγ:
(§10) 6500 cells/well, ERα: 5000 cells/well. White 384-well plates with a clear bottom (Product No.
(§11) 781098, Greiner, Kremsmünster, Austria) were utilized for the MitoOxTox assay: 2650

The target in data set [3] is T1, Aryl hydrocarbon receptor (Rattus norvegicus, UniProt P41738).
T1 sequence (P41738 10-853): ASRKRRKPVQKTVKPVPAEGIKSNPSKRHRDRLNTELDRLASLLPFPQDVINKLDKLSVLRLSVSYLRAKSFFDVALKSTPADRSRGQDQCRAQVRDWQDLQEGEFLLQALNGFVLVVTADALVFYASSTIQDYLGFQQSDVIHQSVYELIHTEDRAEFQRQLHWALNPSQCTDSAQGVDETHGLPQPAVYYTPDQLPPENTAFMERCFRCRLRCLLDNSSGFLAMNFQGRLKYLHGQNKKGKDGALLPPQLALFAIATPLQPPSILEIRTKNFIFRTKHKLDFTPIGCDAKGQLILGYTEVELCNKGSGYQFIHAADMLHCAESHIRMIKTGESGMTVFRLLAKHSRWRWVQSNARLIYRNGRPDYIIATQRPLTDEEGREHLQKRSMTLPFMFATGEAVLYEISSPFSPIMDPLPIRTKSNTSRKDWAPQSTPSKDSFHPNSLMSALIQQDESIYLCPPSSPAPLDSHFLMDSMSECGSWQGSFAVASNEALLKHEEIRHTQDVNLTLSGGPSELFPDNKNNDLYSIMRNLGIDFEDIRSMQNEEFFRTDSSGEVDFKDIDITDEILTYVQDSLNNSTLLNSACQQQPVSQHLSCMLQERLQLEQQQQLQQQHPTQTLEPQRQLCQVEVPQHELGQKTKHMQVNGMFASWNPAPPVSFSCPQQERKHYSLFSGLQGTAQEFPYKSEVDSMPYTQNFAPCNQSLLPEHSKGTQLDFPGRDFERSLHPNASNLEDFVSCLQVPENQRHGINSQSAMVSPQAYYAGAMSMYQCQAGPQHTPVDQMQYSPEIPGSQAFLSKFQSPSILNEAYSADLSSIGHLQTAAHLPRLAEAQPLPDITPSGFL
Conditions: for EC10, linear / logEC10 / EC10, linear transformed: Bioassay AhR, dosing range all; for EC10, linear: linear model fit; for logEC10: log-logistic model fit; for log(1/EC10) AhR: input of the ToxPi score, values up to 1.00; for SR-ScoreAhR: SR-Score, sigma k=1, x=5; for EC10, AhR: effect.
Text: as §1, §2, §3, §4, §5, §6, §7, §8, §9, §10, §11

Setting [4] is: Arec32, read-out: EC10, linear transformed.

Molecules are shown by their SMILES. Read-outs that look alike come from different tables or passages of the source.

As for `Oc1ccc(C(c2ccc(O)cc2)(C(F)(F)F)C(F)(F)F)cc1` [BPAF, 4,4'-(1,1,1,3,3,3-Hexafluoropropane-2,2-diyl)diphenol], the TKcytotoxicity in data set [1] (Table S10) is given as 1.14. In data set [2], the “EC10, linear” value is listed as “no effect” and the logEC10 entry is given as “no effect”. In addition, in data set [3], the “EC10, linear” value was “no effect”; the logEC10 entry was “no effect”; the “log(1/EC10) AhR” value came to 0.92.

Consider `CC(c1ccccc1)(c1ccc(O)cc1)c1ccc(O)cc1` [BPAP, 4,4'-(1-Phenylethylidene)bisphenol], for which the TKcytotoxicity in data set [1] (Table S11) is 0.76. Further, the “EC10, linear” value in data set [2] and in data set [3] was “no effect” each time. The logEC10 result in data set [2] and in data set [3] was “no effect” each time.

Consider `CCC(C)(c1ccc(O)cc1)c1ccc(O)cc1` [BPB, 4,4'-(Butane-2,2-diyl)diphenol], for which the TKcytotoxicity in data set [1] (Table S10) is given as 0.24. In data set [2], the “EC10, linear” value is given as “no effect” and the logEC10 result is reported as “no effect”. In data set [3], the “EC10, linear” value is recorded as “no effect”; the logEC10 result was “no effect”; the “log(1/EC10) AhR” value was 0.83.

Usually EC10 stands for the point of the concentration-response curve where the effect stands at 10%. As for `CC(c1ccc(O)cc1)c1ccc(O)cc1` [BPE, 4,4′-Ethylidenbisphenol], in data set [1] (Table S10), the TKcytotoxicity is 0.63. Moreover, the concentration for an effect of 10% (EC10) in data set [2] (setting [4]) was found to be 3720 µM. Moreover, in data set [2], the “EC10, linear” value is “no effect” and the logEC10 entry is “masked by cytotoxicity”. Besides, in data set [3], the “EC10, AhR (M)” value was 6.19 × 10^–5 M; the “EC10, linear transformed” value is reported as 7.73E-05; the “EC10, linear” value is given as 6.19E-05; the logEC10 is -4.12. Further, in data set [3], the SR-ScoreAhR is given as 0.0256 and the “EC10, AhR” value is 61.9 µM.

Consider `Oc1ccc(Cc2ccc(O)cc2)cc1` [BPF, Bis(4-hydroxyphenyl)methane], for which, in data set [1] (Table S10), the TKcytotoxicity is 0.75. The TKcytotoxicity in data set [1] (Table S11) is 0.44. For the same compound, the EC10 in data set [2] (setting [4]) turned out to be 1470 µM. Further, in data set [2], the “EC10, linear” value was “no effect” and the logEC10 entry is recorded as “masked by cytotoxicity”. Also, in data set [3], the “EC10, linear transformed” value is 2.17E-04; the “EC10, linear” value is recorded as 1.67E-04; the logEC10 result was “masked by cytotoxicity”; the “log(1/EC10) AhR” value was 0.66.

Consider `CC(C)c1cc(C(C)(C)c2ccc(O)c(C(C)C)c2)ccc1O` [BPG, 2,2-Bis(4-hydroxy-3-isopropylphenyl)propane], for which the TKcytotoxicity in data set [1] (Table S10) is listed as 0.62. Moreover, the TKcytotoxicity in data set [1] (Table S11) is reported as 0.67. Also, in data set [2], the “EC10, linear” value is given as “no effect” and the logEC10 entry was “no effect”. Moreover, in data set [3], the “EC10, linear” value is reported as “no effect”; the logEC10 entry was “no effect”; the “log(1/EC10) AhR” value turned out to be 0.96.

For `CC(C)(c1ccc(O)c(-c2ccccc2)c1)c1ccc(O)c(-c2ccccc2)c1` [BPPH, 2,2-Bis(2-hydroxy-5-biphenylyl)propane], the TKcytotoxicity in data set [1] (Table S10) is listed as 0.11. In data set [2], the “EC10, linear” value is reported as “no effect” and the logEC10 result was “no effect”. In data set [3], the “EC10, AhR (M)” value is 9.54 × 10^–6 M; the “EC10, linear transformed” value was determined as 9.38E-06; the “EC10, linear” value worked out at 9.54E-06; the logEC10 is -5.02. Besides, in data set [3], the SR-ScoreAhR is reported as 0.0254; the “EC10, AhR” value amounted to 9.54 µM; the “log(1/EC10) AhR” value was 0.99. Besides, in data set [3] (against baseline cytotoxicity), the “Specificity ratio (SRbaseline) SRAhR” value was 0.43. Also, the “Specificity ratio (SRcytotoxicity) SRAhR” value in data set [3] (against experimental cytotoxicity) came out at 1.35.

As for `C=CCOc1ccc(S(=O)(=O)c2ccc(O)cc2)cc1` [BPS-MAE, 4-[[4-(Allyloxy)phenyl]sulfonyl]phenol], the TKcytotoxicity in data set [1] (Table S10) was determined as 2.91. Also, in data set [2], the “EC10, linear” value is recorded as “no effect” and the logEC10 entry was “no effect”. In data set [3], the “EC10, linear” value is reported as “no effect”; the logEC10 entry was “no effect”; the “log(1/EC10) AhR” value stood at 0.71.

Take `O=S(=O)(c1ccc(O)cc1)c1ccc(OCc2ccccc2)cc1` [BPS-MPE, 4-[4-(benzyloxy)benzenesulfonyl]phenol]: the TKcytotoxicity in data set [1] (Table S10) amounted to 0.45. In addition, in data set [2] (Arec32, read-out: EC10, linear), the EC10 was determined as 55.7 µM. Besides, in data set [2] (setting [4]), the EC10 worked out at 133 µM. Besides, the logEC10 result in data set [2] is on record as “no effect”. For the same compound, in data set [3], the “EC10, linear” value was “no effect”; the logEC10 entry is “no effect”; the “log(1/EC10) AhR” value is 0.91.

On to `Oc1ccc(Sc2ccc(O)cc2)cc1` [BPT, 4,4'-Thiodiphenol], for which the TKcytotoxicity in data set [1] (Table S10) was determined as 1.35. Also, in data set [1] (Table S11), the TKcytotoxicity is 1.00. The EC10 in data set [2] (Arec32, read-out: EC10, linear) was found to be 85.6 µM. Further, in data set [2] (setting [4]), the EC10 turned out to be 1500 µM. Further, in data set [2], the logEC10 result is listed as “masked by cytotoxicity”. For the same compound, in data set [3], the “EC10, linear transformed” value worked out at 9.56E-05; the “EC10, linear” value is “no effect”; the logEC10 entry is “masked by cytotoxicity”; the “log(1/EC10) AhR” value amounted to 0.82.
